Measured values from patent US8663669B2, “Pesticide treatment of soils or substrates with sulphur compounds” (Arkema France, priority 2002, dated 2014).

What was measured:
[1] = tested on: Sclerotium rolfsii; test: Fungicidal efficacy by gassing, sclerotia; assay type: cell-based; design: Vitality score Nm (over 19 days): scale not given here; Reduction in viability RV / Reduction in vitality score RNm: unit not given here; conditions: for Reduction in viability RV / Reduction in vitality score RNm: compared with the control
Description: These four organisms are the following:
Sclerotium rolfsii: a fungus which is also polyphagous and which is found, for example, on melon and courgette crops.
• Sclerotinia sclerotiorum: sclerotia • Sclerotium rolfsii: sclerotia • Rhizoctonia solani: colonized barley grains (mycelium and sclerotia) • Phytophthora cactorum: colonized millet grains (mycelium, sporangia and oospores) Preparation of the Fungi (24 h Before the Gassing Operation) 1. Preparation of the sclerotia of Sclerotinia sclerotiorum and of Sclerotium rolfsii: The fungi are cultured on malt agar medium until the sclerotia are obtained. The sclerotia are collected in a sterile manner and stored dry in empty Petri dishes until they are used. The sclerotia used for the trial are over 3 months old and are perfectly dormant. 2. Preparation of Phytophthora cactorum and of Rhizoctonia solani: The millet and barley used for the multiplication of the two fungi are moistened with ultrapure water by immersing for 24 hours. The grains are then slightly drained and then distributed into flasks and autoclaved (3 autoclavings at 110° C. for 20 minutes, 3 times at 24 hour intervals). Fragments of fungal culture are introduced into the flasks which are then incubated at 22° C.±2° C. (white light 18 h) until homogeneous colonization is obtained. The grains are then removed from the flasks in a sterile manner, dried in the sterile stream of a safety cabinet and then stored in the dry state until they are used. Conditions for Gassing and for Desorption
All the batches of fungi to be treated are placed for a few hours at the trial temperature (20° C.). Between 35 and 300 units of fungi or “propagules” (grains or sclerotia) are subjected to gassing during each trial.
Each fumigation chamber comprising to one or more species of fungi corresponds to a glass round-bottomed flask which is impervious to the gas and has a volume of 11 litres. Each round-bottomed flask is equipped with branch connections, one at the bottom for introducing the liquid DMDS, one at the top for collecting the air sample with a syringe.
Before introducing the gas, a partial vacuum (−500 mbar) is established in the round-bottomed flask with a vacuum pump. This makes it possible, on the one hand, to avoid the phenomenon of excess pressure due to the expansibility of DMDS in the round-bottomed flask and, on the other hand, to promote better homogeneity of the air-gas mixture in the first few seconds which follow injection. The DMDS (weighed accurately to the mg) is injected with a syringe, in liquid form, through the bottom branch connection, that is to say under the screen placed at half height of the round-bottomed flask and supporting the batches of fungi. After introducing the product, the internal pressure of the round-bottomed flask is re-established at atmospheric pressure. A magnetic stirrer operates during the entire duration of the treatment in order to properly homogenize the air-gas mixture.
At the end of the gassing, the cover for the round-bottomed flask is removed. One minute after this operation, the batches of fungi gassed are taken out and left in the open air for 15 minutes for desorption of the DMDS. They are then transferred into a Petri dish, the latter remaining open for 5 minutes to allow perfect desorption of the gas. […]

[2] = tested on: larvae of Meloidogyne arenaria; test: Nematicidal in vitro test on second-stage juvenile larvae; assay type: in vivo; conditions: for Immobility rate after 48 h: 24 h in solution then 24 h in pure water; for Immobility rate after 24 h: aqueous solution
Description: The second-stage juvenile larvae (the free and infesting stage) are immersed for 24 hours in the test solution and then the number of larvae paralysed are counted before transferring them into pure water for another 24 hours. At the end of the 48 hours which have thus elapsed, the larvae paralysed are again counted and the larvae truly dead are counted the next day.
The breeding of the nematodes was carried out on tomato plants. The tests were carried out with, aqueous solutions of DMDS at 0.0001%, 0.1%, 1% and 5% by mass, of DPDS at 1%, 5% and 10% by mass, and of allicin at 0.0003%, 0.0015% and 0.003% by mass, compared with a control consisting of pure water, and repeated five times. The ovicidal activity was also evaluated according to the same modalities, by counting the number of hatchings after 5 to 20 days following exposure to the products.

[3] = tested on: a large number of fungi; conditions: as reported in U.S. Pat. No. 2,917,429; cited from earlier work
[4] = CT 1 050 g·h/m^3 (C 15.91 g/m^3, T 66 h)
[5] = CT 1 402 g·h/m^3 (C 21.24 g/m^3, T 66 h)
[6] = CT 1 450 g·h/m^3 (C 30.96 g/m^3, T 48 h)
[7] = CT 1 899 g·h/m^3 (C 28.77 g/m^3, T 66 h)
[8] = CT 1 981 g·h/m^3 (C 30.02 g/m^3, T 66 h)
[9] = CT 2 460 g·h/m^3 (C 51.25 g/m^3, T 48 h)
[10] = CT 2 471 g·h/m^3 (C 37.44 g/m^3, T 66 h)
[11] = CT 2 837 g·h/m^3 (C 42.98 g/m^3, T 66 h)
[12] = CT 2 974 g·h/m^3 (C 45.06 g/m^3, T 66 h)
[13] = CT 3 169 g·h/m^3 (C 48.02 g/m^3, T 66 h)
[14] = CT 3 467 g·h/m^3 (C 52.53 g/m^3, T 66 h)
[15] = CT 419 g·h/m^3 (C 17.46 g/m^3, T 24 h)
[16] = CT 625 g·h/m^3 (C 26.04 g/m^3, T 24 h)
[17] = CT 703 g·h/m^3 (C 29.29 g/m^3, T 24 h)
[18] = CT 907 g·h/m^3 (C 37.79 g/m^3, T 24 h)

CSSC [DMDS, dimethyl disulphide]
Viability V [1, 4]: 27.6% | Vitality score Nm (over 19 days) [1, 4]: 2.1 | Reduction in viability RV [1, 4]: 68.0 | Reduction in vitality score RNm [1, 4]: 71.1 | Viability V [1, 5]: 18.3% | Vitality score Nm (over 19 days) [1, 5]: 1.3 | Reduction in viability RV [1, 5]: 78.7 | Reduction in vitality score RNm [1, 5]: 81.8 | Viability V [1, 6]: 15.0% | Vitality score Nm (over 19 days) [1, 6]: 0.7 | Reduction in viability RV [1, 6]: 83.2 | Reduction in vitality score RNm [1, 6]: 91.8 | Viability V [1, 7]: 3.1% | Vitality score Nm (over 19 days) [1, 7]: 0.2 | Reduction in viability RV [1, 7]: 96.4 | Reduction in vitality score RNm [1, 7]: 96.8 | Viability V [1, 8]: 4.3% | Vitality score Nm (over 19 days) [1, 8]: 0.3 | Reduction in viability RV [1, 8]: 95.0 | Reduction in vitality score RNm [1, 8]: 95.1 | Viability V [1, 9]: 10.0% | Vitality score Nm (over 19 days) [1, 9]: 0.4 | Reduction in viability RV [1, 9]: 88.8 | Reduction in vitality score RNm [1, 9]: 94.7 | Viability V [1, 10]: 0% | Vitality score Nm (over 19 days) [1, 10]: 0 | Reduction in viability RV [1, 10]: 100 | Reduction in vitality score RNm [1, 10]: 100 | Viability V [1, 11]: 0% | Vitality score Nm (over 19 days) [1, 11]: 0 | Reduction in viability RV [1, 11]: 100 | Reduction in vitality score RNm [1, 11]: 100 | Viability V [1, 12]: 0% | Vitality score Nm (over 19 days) [1, 12]: 0 | Reduction in viability RV [1, 12]: 100 | Reduction in vitality score RNm [1, 12]: 100 | Viability V [1, 13]: 0% | Vitality score Nm (over 19 days) [1, 13]: 0 | Reduction in viability RV [1, 13]: 100 | Reduction in vitality score RNm [1, 13]: 100 | Viability V [1, 14]: 0% | Vitality score Nm (over 19 days) [1, 14]: 0 | Reduction in viability RV [1, 14]: 100 | Reduction in vitality score RNm [1, 14]: 100 | Viability V [1, 15]: 59.1% | Vitality score Nm (over 19 days) [1, 15]: 5.1 | Reduction in viability RV [1, 15]: 33.7 | Reduction in vitality score RNm [1, 15]: 40.9 | Viability V [1, 16]: 53.7% | Vitality score Nm (over 19 days) [1, 16]: 4.8 | Reduction in viability RV [1, 16]: 39.8 | Reduction in vitality score RNm [1, 16]: 44.3 | Viability V [1, 17]: 51.4% | Vitality score Nm (over 19 days) [1, 17]: 4.4 | Reduction in viability RV [1, 17]: 42.4 | Reduction in vitality score RNm [1, 17]: 48.7 | Viability V [1, 18]: 16.2% | Vitality score Nm (over 19 days) [1, 18]: 1.4 | Reduction in viability RV [1, 18]: 81.8 | Reduction in vitality score RNm [1, 18]: 84.2 | Mortality rate after 72 h ([2]; concentration by mass 1 %): 80% | Immobility rate after 48 h ([2]; concentration by mass 1 %): 84% | Immobility rate after 24 h ([2]; concentration by mass 1 %): 72% | Mortality rate after 72 h ([2]; concentration by mass 5 %): 98% | Immobility rate after 48 h ([2]; concentration by mass 5 %): 98% | Immobility rate after 24 h ([2]; concentration by mass 5 %): 97% | Nematostatic and nematicidal activity ([2]; concentration of greater than or equal to 1%): high nematostatic and nematicidal activity | Nematicidal activity ([2]; concentration of less than 1%): no nematicidal activity | Nematostatic activity ([2]; concentration of less than 1%): very weak nematostatic activity | Activity on a large number of fungi [3]: zero activity
